Source: article PMC12629158, “Cytotoxic Activity of Opopanax hispidus (Friv.) Griseb.: Characterization of a New Chalcone‐type Compound” (Chemistry & Biodiversity, 2025)
Converted amounts (≈) assume the structure as drawn. “Also recorded” adds a separate entry of the source. Where two headings read alike, the source gives them in different places.

Key:
MCF‐7 cells = tested on: MCF‐7 cells; parameters: method as in earlier work; details: isolated from Sansevieria cylindrica; cited from earlier work
A549 [1] = test: Selectivity index (IC50 non‐cancerous cells / IC50 cancerous cells); assay type: cell-based, human; details: IC50 Beas‐2B / IC50 A549
Protocol: The selectivity index (SI), which indicates the selectivity between cancer and normal cells, was calculated. The compounds with an SI greater than 1 are more likely to inhibit cancer cells than non‐cancerous cells. SI values were calculated by the formula of [(IC50 values of non‐cancerous cells)/(IC50 values of cancerous cells)].

A549 [2] = test: MTT cytotoxicity assay, A549; assay type: cell-based, human; details: for antiproliferative effect of isolated compounds (in words): A549 lung cancer cells, tested concentrations 0.5–50 µM; for IC50: Homo sapiens, A549, 48 h, MTT, 48 h, read-out: IC50 ± SEM, A549
Protocol: (§1) Adenocarcinomic human alveolar basal epithelial cell line (A549), human cervical cancer cell line (HeLa), human breast cancer cell line (MCF‐7), human hepatocellular carcinoma cell line (HepG2), and human bronchial epithelial cell line (BEAS‐2B) were used for the cytotoxicity test panel of crude extract. […] Therefore, A549 was used in further activity‐guided fractionation and isolation studies. The cell lines were cultured in Dulbecco's Modified Eagle Medium (DMEM) supplemented with 10% fetal bovine serum (FBS), 1% L‐glutamine, and 1% penicillin‐streptomycin. Cells were maintained in an incubator at 37°C under 5% CO2.
(§2) MTT assay was used to determine the cytotoxic activity of the crude extract, subextracts, main fractions, and isolated compounds. MTT assay, called the “gold standard” of cell viability tests, is based on measuring metabolic activity. The cells reaching sufficient confluence were counted and plated in 96‐well plates (6 × 10^3 cells/well). After 24 h, cells were treated with five concentrations of the extracts (1–100 µg/mL), main fractions (1–100 µg/mL), or pure compounds (0.5–50 µM) in DMSO. Doxorubicin (10/3/1/0.3 µM) was used as a positive control. The plates were incubated with test materials for 48 h. After treatment, the supernatant was removed, and fresh medium and MTT solution (1 g/L in PBS) were added to each well. The cells were incubated for three h at 37°C. The resulting formazan crystals were dissolved in DMSO, and finally, the absorbance was detected at 570 nm using a spectrophotometer (SpectraMax i3x; Molecular Devices, San Jose, CA, USA). All data were collected from three independent experiments, and at least n = 6 data points were obtained. IC50 values were calculated as µg/mL for extracts or fractions and as µM for pure compounds.

Beas‐2B = test: MTT cytotoxicity assay, Beas‐2B healthy cell line; assay type: cell-based, human; details: for IC50: Homo sapiens, BEAS-2B, 48 h, MTT, read-out: IC50 ± SEM, Beas‐2B
Protocol: as §1, §2

[3] = isolated compounds 0.5–50 µM (Table 4)
[4] = doxorubicin positive control (Table 2 footnote)
[5] = doxorubicin positive control (Table 3 footnote)

SMILES	antiproliferative effect of isolated compounds (in words) (A549 [2])	IC50 (A549 [2]; [3])	IC50 (Beas‐2B; [3])	further results
COc1c(O)ccc(C(=O)C(CO)Cc2ccc3c(c2)OCO3)c1O (stereo not shown) [2′,4′‐dihydroxy‐3′‐methoxy‐3,4‐methylenedioxy‐8‐hydroxymethylene dihydrochalcone]				IC50, cytotoxic effect against MCF‐7 cells (MCF‐7 cells): 34 µg/mL (≈ 98.2 µM)
COc1cc(O)c(C(=O)C[C@H](O)c2ccc(O)c(CC=C(C)C)c2)c(O)c1 [Compound 3, 2',6'‐dihydroxy‐4'‐methoxy‐3''‐(ɤ,ɤ‐dimethylallyl)‐4''‐hydroxy β‐hydroxydihydrochalcone]	significant activity	13700 ± 800 nM	12000 ± 1500 nM	SI (selectivity index) (A549 [1]; Table 4): 0.87; cytotoxicity against normal cells compared with doxorubicin (in words) (Beas‐2B; normal cells (Beas‐2B)): lower cytotoxicity against normal cells than doxorubicin
O=C(O)c1cc2ccc(=O)oc2cc1O [Compound 1, umbelliferone 6‐carboxylic acid]	did not show an antiproliferative effect; also recorded: did not show antiproliferative activity	> 50000 nM	> 50000 nM	
CC(C)(O)[C@H]1Cc2cc3ccc(=O)oc3cc2O1 [Compound 4, nodakenetin]	did not show an antiproliferative effect; also recorded: did not show antiproliferative activity	> 50000 nM	> 50000 nM	
O=c1ccc2ccc(O)cc2o1 [Compound 2, umbelliferone]	did not show an antiproliferative effect; also recorded: did not show antiproliferative activity	> 50000 nM	> 50000 nM	
COc1cccc2c1C(=O)c1c(O)c3c(c(O)c1C2=O)C[C@@](O)(C(=O)CO)C[C@@H]3O[C@H]1C[C@H](N)[C@H](O)[C@H](C)O1 [Dox, doxorubicin, reference compound]		590 ± 50 nM	70 ± 17 nM	SI (selectivity index) (A549 [1]; Table 3): 0.12; IC50 (A549 [2]; [4]): 820 ± 130 nM; IC50 (A549 [2]; [5]): 590 ± 50 nM; IC50 (Beas‐2B; [4]): 340 ± 20 nM; IC50 (Beas‐2B; [5]): 70 ± 17 nM
